In US8800906B2, “Use of transforming growth factor-beta neutralizing antibodies and fusion proteins thereof in treating pain” (The Board of Trustees of the Leland Stanford Junior …, priority 2010, dated 2014):
Blank lines part the entries; values can stand above or below the molecule they belong to.

Assays:
[1] = system: TGF-β1, TGF-β2, and TGF-β3; conditions: cited from earlier work
TRPV1 = molecular target: T1, TRPV1 (Rattus norvegicus, UniProt O35433); assay: Capsaicin-induced inward current in DRG neurons; format: cell-based
T1 construct: endogenous in cells; host or cells: primary rat DRG neurons
T1 sequence (O35433 whole entry): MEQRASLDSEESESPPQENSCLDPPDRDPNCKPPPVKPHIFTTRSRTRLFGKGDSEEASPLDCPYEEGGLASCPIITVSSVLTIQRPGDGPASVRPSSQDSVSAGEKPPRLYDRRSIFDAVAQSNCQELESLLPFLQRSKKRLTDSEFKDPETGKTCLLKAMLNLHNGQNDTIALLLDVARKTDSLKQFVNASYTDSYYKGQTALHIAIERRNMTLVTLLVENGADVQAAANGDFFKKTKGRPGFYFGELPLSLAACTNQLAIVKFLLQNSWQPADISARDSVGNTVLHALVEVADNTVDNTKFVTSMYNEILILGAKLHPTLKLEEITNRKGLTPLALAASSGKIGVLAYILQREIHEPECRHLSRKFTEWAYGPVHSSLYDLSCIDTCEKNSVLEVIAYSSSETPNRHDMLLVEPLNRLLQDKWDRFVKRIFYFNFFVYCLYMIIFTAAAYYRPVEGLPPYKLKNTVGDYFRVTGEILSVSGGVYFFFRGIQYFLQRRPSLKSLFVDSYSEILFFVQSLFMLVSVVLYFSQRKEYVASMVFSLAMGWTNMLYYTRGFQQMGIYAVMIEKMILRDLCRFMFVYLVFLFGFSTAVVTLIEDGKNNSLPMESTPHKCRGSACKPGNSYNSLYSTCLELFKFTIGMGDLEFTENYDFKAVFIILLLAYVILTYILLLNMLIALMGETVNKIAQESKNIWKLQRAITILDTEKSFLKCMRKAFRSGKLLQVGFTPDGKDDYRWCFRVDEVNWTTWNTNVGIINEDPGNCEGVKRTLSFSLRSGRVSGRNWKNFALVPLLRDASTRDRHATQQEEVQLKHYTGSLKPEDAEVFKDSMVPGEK
Protocol: (§1) Electrophysiology. Whole-cell voltage patch-clamp recordings were conducted at room temperature (22-23° C.) on the stage of an inverted phase contrast microscope (Nikon Inc., Melville, N.Y.). The recording pipettes were pulled from borosilicate glass to give final resistances of […]. Data were acquired with Digidata interface (1200 series, Axon Instruments) and pClamp software (version 9.1, Axon Instruments). The concentrations of the electrode solutions (in mM) used in these experiments were as follows: for recording action potential, K^+ current and non-selective cationic current (pH adjusted to 7.3-7.4 using KOH): potassium gluconate (115), KCl (25), NaCl (5), HEPES (10), CaCl (1), EGTA (1.12) and ATP-Mg (2); for recording Na^+ current (pH adjusted to 7.3-7.4 using NaOH): CsF (110), MgCl2 (5), EGTA (11), NaCl (10) and HEPES (10). The cells were bathed in modified Tyrode saline consisting of (in mM): NaCl (135), KCl (5.4), MgCl2 (1), CaCl2 (2), NaH2PO3 (0.1), HEPES (10) and glucose (10). […] Action potentials were recorded in mode of I-clamp after observed membrane potential setting at I=0, and the currents were recorded by switching mode to v-clamp. The current signals were recorded to disk for off-line analysis using pCLAMP fit and Origin 7. Results were expressed as means±SE, n=number of cells. […]

rat DRG neurons = assay: Whole-cell patch-clamp excitability of cultured DRG neurons; format: cell-based
Protocol: Dorsal Root Ganglia (DRG) neurons culture. Adult Sprague-Dawley rats (120-150 g) were sacrificed by decapitation. Thoracic and lumbar DRGs were then bilaterally dissected out and transferred to ice-cold Minimal Essential Medium (Gibco, Grand Island, N.Y.) supplemented with penicillin-streptomycin (2×, Gibco, Grand Island, N.Y.). After trimming axons and connective tissue, ganglia were transferred into enzyme solution, i.e., Hank's Balanced Salt Solution containing 5 mg/ml collagenase (Type 2, Worthington, Lakewood, N.J.), and incubated for three hours at 5% CO2-95% O2 37° C. A pellet was subsequently obtained by repeated trituration through flame-polished glass pipettes and centrifuged at 50×g for 10 minutes. Single cells were resuspended and plated onto poly-1-ornithine (Sigma) coated coverslips with neurobasal media (Gibco) supplemented with albumin solution (0.7%, Sigma), penicillin-streptomycin (2×), B27 with retinoic acid (2×, Invitrogen), beta-mercaptoethanol (0.11 mM, Gibco), mouse nerve growth factor ([…], Promega, Madison, Wis.) and L-glutamine (2×, Gibco). Recombinant TGF-β1 and TGF-β2 (Calbiochem, cat #616455, PF017) were dissolved in 10% ethanol in phosphate buffered saline (PBS) to yield a stock concentration of 10 ng/μl. TGF-β1 or TGF-β2 (10 ng/ml) was added to cultures at the beginning of incubation at 37° C. 5% CO2-95% O2.
Electrophysiology. Whole-cell voltage patch-clamp recordings were conducted at room temperature (22-23° C.) on the stage of an inverted phase contrast microscope (Nikon Inc., Melville, N.Y.). The recording pipettes were pulled from borosilicate glass to give final resistances of […]. Data were acquired with Digidata interface (1200 series, Axon Instruments) and pClamp software (version 9.1, Axon Instruments). The concentrations of the electrode solutions (in mM) used in these experiments were as follows: for recording action potential, K^+ current and non-selective cationic current (pH adjusted to 7.3-7.4 using KOH): potassium gluconate (115), KCl (25), NaCl (5), HEPES (10), CaCl (1), EGTA (1.12) and ATP-Mg (2); for recording Na^+ current (pH adjusted to 7.3-7.4 using NaOH): CsF (110), MgCl2 (5), EGTA (11), NaCl (10) and HEPES (10). The cells were bathed in modified Tyrode saline consisting of (in mM): NaCl (135), KCl (5.4), MgCl2 (1), CaCl2 (2), NaH2PO3 (0.1), HEPES (10) and glucose (10). The osmolality was maintained at 280-300 mOsm for the intracellular electrolyte and 300-330 mOsm for the extracellular bath solution. […] Action potentials were recorded in mode of I-clamp after observed membrane potential setting at I=0, and the currents were recorded by switching mode to v-clamp. The current signals were recorded to disk for off-line analysis using pCLAMP fit and Origin 7. Results were expressed as means±SE, n=number of cells.

Kv channels = assay: Voltage-dependent K+ currents in DRG neurons; format: cell-based, rat
Protocol: (§2) Electrophysiology. Whole-cell voltage patch-clamp recordings were conducted at room temperature (22-23° C.) on the stage of an inverted phase contrast microscope (Nikon Inc., Melville, N.Y.). The recording pipettes were pulled from borosilicate glass to give final resistances of […]. Data were acquired with Digidata interface (1200 series, Axon Instruments) and pClamp software (version 9.1, Axon Instruments). The concentrations of the electrode solutions (in mM) used in these experiments were as follows: for recording action potential, K^+ current and non-selective cationic current (pH adjusted to 7.3-7.4 using KOH): potassium gluconate (115), KCl (25), NaCl (5), HEPES (10), CaCl (1), EGTA (1.12) and ATP-Mg (2); for recording Na^+ current (pH adjusted to 7.3-7.4 using NaOH): CsF (110), MgCl2 (5), EGTA (11), NaCl (10) and HEPES (10). The cells were bathed in modified Tyrode saline consisting of (in mM): NaCl (135), KCl (5.4), MgCl2 (1), CaCl2 (2), NaH2PO3 (0.1), HEPES (10) and glucose (10). The osmolality was maintained at 280-300 mOsm for the intracellular electrolyte and 300-330 mOsm for the extracellular bath solution. Agents such as capsaicin, capsazepine, TEA, 4AP, TTX etc were delivered through a valve control system (BPS-4, Scientific Instrument, New York). Prior to patch clamping a cell, the amplifier (Axopatch 200B, Axon Instruments, CA, USA) was zeroed so that any junction potential was balanced by an offset potential. High resistance (Gigaohm) seals were formed between the recording electrode and cell membrane and ruptured by suction using standard patch clamp recording methods. Action potentials were recorded in mode of I-clamp after observed membrane potential setting at I=0, and the currents were recorded by switching mode to v-clamp. The current signals were recorded to disk for off-line analysis using pCLAMP fit and Origin 7. Results were expressed as means±SE, n=number of cells.
TGF-β influences K^+ and Na^+ channel activity (FIGS. 6 and 7). Voltage-dependent potassium (Kv) currents play a fundamental role in determining neuronal excitability. […]

DRG neurons = assay: Patch-clamp excitability of DRG neurons from transgenic mice lacking glial TGF-β receptor response; format: cell-based, mouse
Description: Transgenic mice. To decrease the response to TGF-β specifically in astrocytes, we took advantage of a dominant negative mutation in the type II TGF-β receptor that has been cloned into a bidirectional doxycycline-regulatable element (bi-tetO) that also drives enhanced green fluorescent protein (GFP). Andrews, Z. B. et al., 2006 Neurobiol Dis. 21, 568-75. TetO-TBR2-DN mice were obtained from Jackson Laboratories, Bar Harbor, Me. This line was crossed to a GFAP-tTA transgenic line (Jackson Laboratories). This line confers expression of tetO transgenes to astrocytes in the absence of doxycycline, and is induced by injuries, including stroke. DRGs were dissected from these mice and cultured as above.
as §2

sodium channel = assay: Sodium channel currents in DRG neurons; format: cell-based, rat
Protocol: as §1

SMAD3 [2] = molecular target: SMAD3 (Homo sapiens, UniProt P84022); conditions: cited from earlier work
Chain of SMAD3 (Homo sapiens, UniProt P84022) (P84022 whole entry): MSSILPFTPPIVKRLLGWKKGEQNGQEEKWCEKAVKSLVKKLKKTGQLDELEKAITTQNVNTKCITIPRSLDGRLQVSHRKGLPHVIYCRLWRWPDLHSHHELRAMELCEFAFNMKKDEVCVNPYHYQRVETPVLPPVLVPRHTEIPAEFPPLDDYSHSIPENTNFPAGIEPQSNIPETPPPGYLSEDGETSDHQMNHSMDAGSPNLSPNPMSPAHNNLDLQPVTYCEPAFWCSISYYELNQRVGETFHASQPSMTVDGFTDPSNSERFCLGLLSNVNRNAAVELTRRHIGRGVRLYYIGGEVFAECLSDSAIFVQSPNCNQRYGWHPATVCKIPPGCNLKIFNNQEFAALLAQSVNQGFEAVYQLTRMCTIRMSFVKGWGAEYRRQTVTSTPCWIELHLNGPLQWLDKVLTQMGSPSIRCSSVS

SMAD3 [3] = molecular target: T2, SMAD3 (Rattus norvegicus, UniProt P84025); assay: Excitability of DRG neurons with TGF-β and SIS3; format: cell-based; conditions: SIS3 3 μM
T2 construct: endogenous in cells; host or cells: primary DRG neurons
T2 sequence (P84025 whole entry): as the sequence (P84022 whole entry) above
Protocol: SIS3 was dissolved in DMSO and diluted in culture media that was added at the time of plating with a final concentration of 3 μM. After one hour, the culture wells received TGF-β1 (0.2 ng/ml) for further incubation. Most cells were patched at 12-24 h, and both agents were refreshed daily if incubated for over 24 h.

SMAD3 [4] = conditions: cited from earlier work
conscious rats = assay: Nocifensive behaviors to electrical stimulation of the pancreas after intrapancreatic infusion of TGF-β; format: in vivo; conditions: intra-pancreatic infusion, 400 ng per rat
Protocol: Intrapancreatic infusion of TGF-β. Rats were anesthetized with sodium nembutal (Abbott Laboratories, Chicago, Ill.) (50 mg/kg body weight, i.p.). The peritoneum was incised to expose the duodenum, and the duodenal loop was pulled out. The pancreatic duct entering the duodenum was identified under dissecting microscope, and a small niche was made into the duct with a 30-gauge needle. A polyethylene 10 tubing (0.61 mm outer diameter) (Becton Dickinson and Company, Franklin Lakes, N.J.) was guided into the duct and tied to secure its position. The position of the tube in the pancreatic duct was confirmed by observing bile flowing through the tubing. The common bile duct was ligated close to the liver to prevent entry of the injected substance into the liver. Similarly the duct was ligated near its entry into the duodenum. Four hundred μl (0.4 ml) per rat of 400 ng of TGF-β1 or TGF-β2 in 10% ethanol in phosphate buffered saline (PBS) or vehicle alone was injected through a syringe connected to the tubing. The tubing was carefully removed and bile flow from the liver into the duodenum was re-established. The abdominal cavity was closed with sutures and rats allowed to recover.
Behavioral Studies of Rats with Chronic Pancreatitis. […] The number of nocifensive behaviors observed during 5 min of stimulation period was counted. […]

[5] = system: spinal cord laminae I/II FOS positive cells; assay: FOS immunochemistry in spinal cord after intrapancreatic TGF-β infusion and electrical stimulation; format: in vivo, rat; conditions: intra-pancreatic infusion 400 ng followed by ES
Protocol: FOS Immunochemistry. Eight rats were used for this experiment (TGF-β n=4; Vehicle n=4). TGF-β2 (400 ng) in 0.4 ml of 10% ETOH/PBS or vehicle alone were infused into pancreatic duct of rats. 24 hours later rats underwent noxious electrical stimulation of the pancreas (5 mA for 5 minutes). Thirty minutes later the rats were transcardially perfused with 150 ml of normal saline followed by ice cold 400 ml of 4% paraformaldehyde in 0.1M phosphate buffer (PB) pH 7.4. Spinal cord segments corresponding to DRG T8-T10 were identified, cut and post-fixed in 4% paraformaldehyde over night. The samples were then transferred to 30% sucrose in 0.1 M PB for 24 hours at 4° C. followed by freezing on dry ice with optimum cutting temperature (OCT). Frozen serial coronal sections (35 μm) were cut on a cryostat, collected in separate wells of a 24-well plate and stored floating in antifreeze at −20° C. We processed a total of 6 sections per segment. The sections were stained with a rabbit polyclonal primary antiserum directed against FOS (ab7963, Abcam, Cambridge Mass.), diluted (1:2000) in PB saline containing 3% normal goat serum and 0.1% Triton X-100, for 24 h at 4° C. […] The number of FOS positive cells in spinal cord laminae I/II were counted under 40× magnification from 6 slices per individual spinal segment per animal by two blinded investigators.

Molecule: GC1008: humanized TGF-β-neutralizing monoclonal antibody
neutralization of TGF-β ligands/isoforms [1]: capable of neutralizing all three TGF-β isoforms

capsaicin induced current (TRPV1; neurons treated with TGF-β, n=17): 724.7±129.4 pA
RMP (DRG neurons; transgenic mouse DRG preparations, 10 ng/ml): −49.7±5.5 mV
Molecule: TGF-β
resting membrane potential (RMP) (rat DRG neurons; rat DRG cultures exposed to TGF-β, n=21): −48.8±7.6 mV
proportion of tested cells showing multiple action potentials (rat DRG neurons; rat DRG neurons): 43%
current pulse (rheobase) required for triggering an action potential (rat DRG neurons; rat DRG neurons, n=11): 0.15±0.09 nA
number of action potentials evoked by two times rheobase current stimulation (rat DRG neurons; rat DRG neurons, n=17): 2.75 Hz
tested neurons showing an absence of IA current (Kv channels; TGF-β treated neurons): 11 of 22
Itotal density (Kv channels; all Kv channels, DRG neurons in culture): did not result in a significant reduction
IA density (Kv channels; at +30 mV, n=10): 29.6±3.8 pA/pF
density of TTXR current (sodium channel; n=7): 114.25±27.32
density of total INa (sodium channel; n=23): 216.12±15.01

effect on capsaicin-induced inward current (TRPV1; middle sized neurons): suppressible
Molecule: Oc1cc2c(cc1O)CN(C(=S)NCCc1ccc(Cl)cc1)CCC2 [capsazepine, reference compound]

decrease in RMP induced by TGFβ (SMAD3 [3]; TGF-β 10 ng/ml, 48 hours): prevented the decrease in RMP
TGF-β1 induced changes in frequency of action potentials at 2× rheobase current (SMAD3 [3]; TGF-β1 0.2 ng/ml): attenuate
TGF-β1 induced changes in resting membrane potential (RMP) (SMAD3 [3]; TGF-β1 0.2 ng/ml): attenuate
TGF-β1 induced changes in rheobase (SMAD3 [3]; TGF-β1 0.2 ng/ml): attenuate
Molecule: Cc1cc2c(cc1C)CN(C(=O)/C=C/c1c(-c3ccccc3)n(C)c3ncccc13)CC2.Cl [SIS3]
production of extracellular matrix (SMAD3 [2]; TGF-β1-treated normal fibroblasts and scleroderma fibroblasts): blocked excessive production of extracellular matrix
Smad3 phosphorylation (SMAD3 [2]): suppresses Smad3 phosphorylation

Molecule: NC(=O)c1ccc(-c2nc(-c3ccc4c(c3)OCO4)c(-c3ccccn3)[nH]2)cc1 [SB431542]
Smad3 phosphorylation (SMAD3 [4]): selective inhibition of Smad3 phosphorylation

Molecule: TGF-β1: Recombinant TGF-β1 (Calbiochem)
rheobase (DRG neurons; transgenic mouse DRG): 0.03 nA
firing threshold (DRG neurons; transgenic mouse DRG, n=7): −35 mV
spikes (DRG neurons; transgenic mouse DRG, n=7): 2.8±1.5
behavioral response to noxious stimulation (electric stimulation, ES) (conscious rats): hyperalgesic behavioral response

B1: TGF-β2: Recombinant TGF-β2 (Calbiochem) (protein, UniProt P61812 303-414, looked up)
Transforming growth factor …: ALDAAYCFRNVQDNCCLRPLYIDFKRDLGWKWIHEPKGYNANFCAGACPYLWSSDTQHSRVLSLYNTINPEASASPCCVSQDLEPLTILYYIGKTPKIEQLSNMIVKSCKCS
modifications: Transforming growth factor beta-2
FOS expression in the spinal cord [5]: greater FOS expression
behavioral response to noxious stimulation (electric stimulation, ES) (conscious rats): hyperalgesic behavioral response
